In general, IC50 refers to the concentration needed to halve the response being measured.

One test deals with T1, PI3Kα kinase (Homo sapiens, UniProt P42336).
T1 construct: purchased Invitrogen PV4788
Put plainly: PI3Ka Transcreener ADP assay (fluorescence polarization). As to conditions: 10 μM ATP, 30 μmol/L lipid substrate; read-out: IC50, inhibition of PI3Kα kinase. The format is biochemical. The protocol: Fluorescence polarization was used in this assay. The final conditions for kinase assay are 10 μM of ATP, 0.2 ng/μL of PI3Kα kinase, 30 μmol/L of lipid substrate and assay buffer (50 mmol/L of HEPES (pH 7.5), 100 mmol/L of NaCl, 1 mmol/L of EGTA, 3 mmol/L of MgCl2, 1 mmol/L of DTT and 0.03% CHAPS and 2% DMSO).
5 μL of test compounds in 10% DMSO and 10 μL of 0.5 ng/μL PI3K kinase (Invitrogen, PV4788) in assay buffer are put into a 96-well plate (Greiner, Cat. 675076), and then the reaction is started by the addition of 10 μL of 75 μmol/L PIP2, (PS Lipid Substrate Invitrogen, PV5100), and 25 μmol/L ATP mixture. After the mixture is incubated for 60 minutes at room temperature, 25 μL of transcreener Kinase Kit reagent—ADP Detection Mix—(Bellbrook Labs) is added, and the reaction is continued for an additional 1.5 hours. At the end, the plate is read in a Tecan Infinite F500 at excitation of 610 nm and emission of 670 nm.
A standard curve for ADP is obtained in a parallel way by replacing compound and PI3Kα kinase with DMSO and assay buffer, respectively. Different concentration of ADP, 0-10 μM, and ATP, 10-0 μM (ATP+ADP equal to 10 μM) are applied instead of a fixed concentration of ATP in this standard curve assay. Other conditions are the same as described above. The standard curve is plotted using Origin 8.0 software. The inhibition of test compound on ADP production is calculated based on ADP concentration from standard curve. IC50 is obtained using XLfit 2.0 software.
In general terms: Fluorescence polarisation rises when a labelled molecule tumbles more slowly, as on binding a larger partner.

In the next test the target is T2, mTOR kinase (Homo sapiens, UniProt P42345).
T2 construct: purchased Invitrogen PV4753
T2 sequence (P42345 1360-2549 limits assumed): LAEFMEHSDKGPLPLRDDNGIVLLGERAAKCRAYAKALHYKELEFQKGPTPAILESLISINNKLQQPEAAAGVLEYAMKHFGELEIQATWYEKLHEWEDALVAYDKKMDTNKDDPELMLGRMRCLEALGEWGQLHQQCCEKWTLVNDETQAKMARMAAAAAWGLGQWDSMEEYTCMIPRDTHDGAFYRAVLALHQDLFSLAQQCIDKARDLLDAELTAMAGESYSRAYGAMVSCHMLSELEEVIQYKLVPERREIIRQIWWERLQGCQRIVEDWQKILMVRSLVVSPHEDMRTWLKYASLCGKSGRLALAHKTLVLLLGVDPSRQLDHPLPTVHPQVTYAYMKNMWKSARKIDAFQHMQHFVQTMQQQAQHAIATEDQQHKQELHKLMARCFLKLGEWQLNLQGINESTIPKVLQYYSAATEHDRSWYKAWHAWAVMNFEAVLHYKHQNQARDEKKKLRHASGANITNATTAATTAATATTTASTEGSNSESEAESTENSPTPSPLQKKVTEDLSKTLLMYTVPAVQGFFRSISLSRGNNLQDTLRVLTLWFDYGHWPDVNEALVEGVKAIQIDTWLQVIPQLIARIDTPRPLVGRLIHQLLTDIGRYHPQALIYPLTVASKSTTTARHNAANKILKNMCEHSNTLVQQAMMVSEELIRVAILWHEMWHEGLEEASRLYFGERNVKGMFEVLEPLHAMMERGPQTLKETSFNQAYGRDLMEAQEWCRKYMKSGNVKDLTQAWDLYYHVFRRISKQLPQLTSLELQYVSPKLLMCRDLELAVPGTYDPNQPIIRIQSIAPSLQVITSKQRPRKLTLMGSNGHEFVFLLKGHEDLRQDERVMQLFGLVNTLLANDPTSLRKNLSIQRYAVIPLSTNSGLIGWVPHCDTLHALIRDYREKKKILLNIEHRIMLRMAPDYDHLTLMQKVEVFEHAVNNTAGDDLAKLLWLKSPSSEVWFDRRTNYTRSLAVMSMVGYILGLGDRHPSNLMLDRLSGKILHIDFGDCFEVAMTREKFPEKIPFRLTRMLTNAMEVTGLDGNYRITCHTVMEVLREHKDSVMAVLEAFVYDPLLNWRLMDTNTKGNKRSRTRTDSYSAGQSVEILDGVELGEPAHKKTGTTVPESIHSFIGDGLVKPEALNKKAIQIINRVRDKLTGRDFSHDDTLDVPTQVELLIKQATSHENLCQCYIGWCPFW
The test can be described thus: mTOR LanthaScreen TR-FRET assay. The class given is biochemical. The following applies: 10 μmol/L ATP, GFP-4EBP1 substrate; read-out: IC50, inhibition of mTOR. The protocol: Compounds are tested using LanthaScreen TR-FRET Assay. The kinase reaction is completed in 384-well black plate (Corning, Cat. 3676). The final conditions for kinase assay are: 10 μmol/L of ATP, 0.2 ng/μL of mTOR kinase, 0.4 μmol/L of GFP-4EBP1 substrate and assay buffer (50 mmol/L of HEPES, pH 7.5, 0.01% of Tween 20, 1 mmol/L of EGTA, 10 mmol/L of MnCl2, 2 mmol/L of DTT and 1% DMSO).
To each well, 2.5 μL of test compounds in 4% DMSO and 2.5 μL of 0.8 ng/μL mTOR kinase (Invitrogen, PV4753) diluted in assay buffer are added. The reaction is initiated by the addition of 5 μL mixture of 0.8 μmol/L GFP-4EBP1 Substrate (Invitorgen, PV4759) and 20 μmol/L ATP mixtures. The mixture is incubated at room temperature for 60 minutes. 10 μL of 20 mmol/L EDTA and 4 nmol/L Tb-anti-p4EBP1 [pThr46] antibody (Invitrogen, PV4755) diluted in TR-FRET dilution buffer are added and incubated for an additional 1 hour. The plate is then read in a BioTek Synergy2 Reader at excitation of 340 nm and emission of 490 nm and 528 nm.
The inhibition of test compound is calculated based on the ratio of 528 nm/490 nm. IC50 of test compound is obtained using XLfit 2.0 software.
A general note: Time-resolved FRET reads energy transfer from a long-lived donor to a nearby acceptor.

T1 sequence (P42336 whole entry): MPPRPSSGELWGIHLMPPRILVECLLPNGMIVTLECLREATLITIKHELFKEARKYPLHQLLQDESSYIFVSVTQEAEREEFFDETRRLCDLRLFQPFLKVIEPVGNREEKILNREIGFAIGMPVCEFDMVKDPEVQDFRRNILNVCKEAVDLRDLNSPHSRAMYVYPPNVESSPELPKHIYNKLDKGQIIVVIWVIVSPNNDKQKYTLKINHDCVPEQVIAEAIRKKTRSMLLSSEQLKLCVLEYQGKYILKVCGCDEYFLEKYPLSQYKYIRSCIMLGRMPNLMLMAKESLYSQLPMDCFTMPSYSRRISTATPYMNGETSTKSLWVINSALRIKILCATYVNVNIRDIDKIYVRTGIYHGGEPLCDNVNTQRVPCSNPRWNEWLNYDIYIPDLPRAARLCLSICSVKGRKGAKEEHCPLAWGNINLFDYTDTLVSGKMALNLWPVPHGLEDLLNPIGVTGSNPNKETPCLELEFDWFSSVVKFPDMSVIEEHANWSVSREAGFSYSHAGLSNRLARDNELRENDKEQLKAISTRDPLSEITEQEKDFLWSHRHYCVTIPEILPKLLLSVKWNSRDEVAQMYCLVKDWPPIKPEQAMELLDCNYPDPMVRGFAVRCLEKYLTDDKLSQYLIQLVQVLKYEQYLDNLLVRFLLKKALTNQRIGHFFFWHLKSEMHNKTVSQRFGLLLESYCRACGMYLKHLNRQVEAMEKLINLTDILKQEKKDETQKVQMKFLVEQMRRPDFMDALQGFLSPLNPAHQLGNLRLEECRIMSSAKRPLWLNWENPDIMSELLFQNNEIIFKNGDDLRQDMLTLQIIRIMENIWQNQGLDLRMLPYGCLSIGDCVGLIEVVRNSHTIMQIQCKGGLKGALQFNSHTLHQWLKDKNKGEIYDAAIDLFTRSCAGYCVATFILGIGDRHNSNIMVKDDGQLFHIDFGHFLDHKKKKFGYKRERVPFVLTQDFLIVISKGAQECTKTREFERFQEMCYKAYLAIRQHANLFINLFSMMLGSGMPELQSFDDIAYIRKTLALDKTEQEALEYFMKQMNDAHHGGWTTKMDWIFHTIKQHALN
T1 sequence (P27986 whole entry partner): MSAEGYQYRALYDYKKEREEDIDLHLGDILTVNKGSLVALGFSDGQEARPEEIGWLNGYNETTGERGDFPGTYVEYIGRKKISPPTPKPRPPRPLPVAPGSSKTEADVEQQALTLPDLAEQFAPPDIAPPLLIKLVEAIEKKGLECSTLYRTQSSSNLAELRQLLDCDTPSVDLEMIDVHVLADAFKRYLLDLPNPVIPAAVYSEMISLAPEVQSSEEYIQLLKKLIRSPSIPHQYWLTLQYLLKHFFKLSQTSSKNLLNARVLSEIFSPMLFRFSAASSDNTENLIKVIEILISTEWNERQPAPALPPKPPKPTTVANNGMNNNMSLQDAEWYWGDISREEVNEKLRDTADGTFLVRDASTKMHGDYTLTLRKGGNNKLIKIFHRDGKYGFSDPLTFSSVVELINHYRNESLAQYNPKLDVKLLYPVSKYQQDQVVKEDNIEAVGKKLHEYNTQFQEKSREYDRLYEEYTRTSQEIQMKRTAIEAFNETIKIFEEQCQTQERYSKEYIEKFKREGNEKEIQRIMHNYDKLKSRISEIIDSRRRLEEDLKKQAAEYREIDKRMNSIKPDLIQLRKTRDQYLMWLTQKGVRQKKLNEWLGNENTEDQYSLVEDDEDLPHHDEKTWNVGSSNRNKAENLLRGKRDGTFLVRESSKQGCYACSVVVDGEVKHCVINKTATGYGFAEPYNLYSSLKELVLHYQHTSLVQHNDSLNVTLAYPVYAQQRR

Take `C[C@H](O)C(=O)N1CCC(n2nnc3cnc4ccc(-c5cnc(N)c(C(F)(F)F)c5)nc4c32)CC1` [Compound 1, (S)-1-(4-(8-(6-amino-5-(trifluoromethyl)pyridin-3-yl)-1H-[1,2,3]triazolo[4,5-c][1,5]naphthyridin-1-yl)piperidin-1-yl)-2-hydroxypropan-1-one]: the half-maximal inhibitory concentration (IC50) at PI3Kα kinase and on mTOR kinase was below 100 nM in each case.

On to `CCC(=O)N1CCC(n2nnc3cnc4ccc(-c5cnc(N)c(C(F)(F)F)c5)nc4c32)CC1` [Compound 6], for which the IC50 at PI3Kα kinase and on mTOR kinase was below 100 nM each time.

`COCC(=O)N1CCC(n2nnc3cnc4ccc(-c5cnc(N)c(C(F)(F)F)c5)nc4c32)CC1` [Compound 7]: the IC50 at PI3Kα kinase and on mTOR kinase was below 100 nM in each case.

`Nc1ncc(-c2ccc3ncc4nnn(C5CCN(C(=O)C6CC6)CC5)c4c3n2)cc1C(F)(F)F` [Compound 9]: the concentration for half-maximal inhibition (IC50) on PI3Kα kinase and at mTOR kinase was below 100 nM each time.

As for `Nc1ncc(-c2ccc3ncc4nnn(C5CCOCC5)c4c3n2)cc1C(F)(F)F` [Compound 10], the IC50 at PI3Kα kinase and on mTOR kinase was below 100 nM throughout.

Take `Nc1ncc(-c2ccc3ncc4nnn(Cc5ccc(F)cc5)c4c3c2)cn1` [Compound 12]: the IC50 at PI3Kα kinase and on mTOR kinase was below 100 nM throughout.

`Nc1ncc(-c2ccc3ncc4nnn(-c5ccc6[nH]ncc6c5)c4c3c2)cc1C(F)(F)F` [Compound 14]: the 50% inhibitory concentration (IC50) on PI3Kα kinase and at mTOR kinase was below 100 nM each time.

In the case of `CC(C)(C#N)c1ccc(-n2nnc3cnc4ccc(-c5cnc(N)c(C(F)(F)F)c5)nc4c32)cn1` [Compound 16], the IC50 on PI3Kα kinase and on mTOR kinase was below 100 nM in each case.

Take `CC(C)(C#N)c1ccc(-n2nnc3cnc4ccc(-c5cnc(N)c(C(F)(F)F)c5)nc4c32)cc1` [Compound 17]: the half-maximal inhibitory concentration (IC50) at PI3Kα kinase and on mTOR kinase was below 100 nM in each case.

Turning to `C[C@@H](O)C(=O)N1CCC(n2nnc3cnc4ccc(-c5cnc(N)c(C(F)(F)F)c5)nc4c32)CC1` [Compound 21, (R)-1-(4-(8-(6-amino-5-(trifluoromethyl)pyridin-3-yl)-1H-[1,2,3]triazolo[4,5-c][1,5]naphthyridin-1-yl)piperidin-1-yl)-2-hydroxypropan-1-one], the IC50 at PI3Kα kinase and at mTOR kinase was below 100 nM throughout.

On to `Nc1ncc(-c2ccc3ncc4nnn(C5CCN(C(=O)CO)CC5)c4c3n2)cc1C(F)(F)F` [Compound 25], for which the IC50 at PI3Kα kinase and on mTOR kinase was below 100 nM in each case.

Consider `CC(C)(O)C(=O)N1CCC(n2nnc3cnc4ccc(-c5cnc(N)c(C(F)(F)F)c5)nc4c32)CC1` [Compound 26], for which the IC50 on PI3Kα kinase and on mTOR kinase was below 100 nM throughout.

As to `CC(C)C(=O)N1CCC(n2nnc3cnc4ccc(-c5cnc(N)c(C(F)(F)F)c5)nc4c32)CC1` [Compound 30, 1-(4-(8-(6-amino-5-(trifluoromethyl)pyridin-3-yl)-1H-[1,2,3]triazolo[4,5-c][1,5]naphthyridin-1-yl)piperidin-1-yl)-2-methylpropan-1-one], the IC50 at PI3Kα kinase and at mTOR kinase was below 100 nM throughout.

Turning to `N#CC1(C(=O)N2CCC(n3nnc4cnc5ccc(-c6cnc(N)c(C(F)(F)F)c6)nc5c43)CC2)CC1` [Compound 33], the half-maximal inhibitory concentration (IC50) at PI3Kα kinase and on mTOR kinase was below 100 nM throughout.

For the molecule `CCCC(=O)N1CCC(n2nnc3cnc4ccc(-c5cnc(N)c(C(F)(F)F)c5)nc4c32)CC1` [Compound 35], the concentration for half-maximal inhibition (IC50) at PI3Kα kinase and at mTOR kinase was below 100 nM in each case.

With `Cn1c(=O)n(-c2ccc(C(C)(C)C#N)nc2)c2c3cc(-c4cnc(N)nc4)ccc3ncc21` [Compound 42], the IC50 on PI3Kα kinase and on mTOR kinase was below 100 nM each time.

In the case of `CN(C)C(=O)CN1CCC(n2nnc3cnc4ccc(-c5cnc(N)c(C(F)(F)F)c5)nc4c32)CC1` [Compound 43, 2-(4-(8-(6-amino-5-(trifluoromethyl)pyridin-3-yl)-1H-[1,2,3]triazolo[4,5-c][1,5]naphthyridin-1-yl)piperidin-1-yl)-N,N-dimethylacetamide], the half-maximal inhibitory concentration (IC50) on PI3Kα kinase and at mTOR kinase was below 100 nM each time.

For `CC1(CN2CCC(n3nnc4cnc5ccc(-c6cnc(N)c(C(F)(F)F)c6)nc5c43)CC2)COC1` [Compound 44], the IC50 on PI3Kα kinase and on mTOR kinase was below 100 nM in each case.

Consider `CCNC(=O)N1CCC(n2nnc3cnc4ccc(-c5cnc(N)c(C(F)(F)F)c5)nc4c32)CC1` [Compound 45], for which the IC50 at PI3Kα kinase and on mTOR kinase was below 100 nM each time.

As to `Nc1ncc(-c2ccc3ncc4nnn(C5CCN(CCO)CC5)c4c3n2)cc1C(F)(F)F` [Compound 46], the concentration for half-maximal inhibition (IC50) at PI3Kα kinase and on mTOR kinase was below 100 nM each time.

As to `CC(C)(C#N)c1ccc(-c2nnc3cnc4ccc(-c5cnc(N)c(C(F)(F)F)c5)cc4n23)cc1` [Compound 49, 2-(4-(8-(6-amino-5-(trifluoromethyl)pyridin-3-yl)-[1,2,4]triazolo[4,3-a]quinoxalin-1-yl)phenyl)-2-methylpropanenitrile], the IC50 at PI3Kα kinase and at mTOR kinase was below 100 nM each time.

As for `CC(C)(C#N)c1ccc(-c2nnc3cnc4ccc(-c5ccc(N)nc5)cc4n23)cc1` [Compound 50], the IC50 at PI3Kα kinase and on mTOR kinase was below 100 nM throughout.

As for `CC(C)(C#N)c1ccc(-c2nnc3cnc4ccc(-c5ccc6nc(N)sc6c5)cc4n23)cc1` [Compound 52], the IC50 on PI3Kα kinase and on mTOR kinase was below 100 nM in each case.

Take `CC(C)(C#N)c1ccc(-c2nnc3cnc4ccc(-c5cnc6[nH]ncc6c5)cc4n23)cc1` [Compound 53]: the IC50 on PI3Kα kinase and at mTOR kinase was below 100 nM throughout.

`CC(C)(C#N)c1ccc(-c2nnc3cnc4ccc(-c5ccc6nc(N)oc6c5)cc4n23)cc1` [Compound 55]: the concentration for half-maximal inhibition (IC50) on PI3Kα kinase and on mTOR kinase was below 100 nM throughout.

On to `CC(C)(C#N)c1ccc(-c2nnc3cnc4ccc(-c5ccc6nc(N)sc6c5)cc4n23)cn1` [Compound 56], for which the concentration for half-maximal inhibition (IC50) at PI3Kα kinase and at mTOR kinase was below 100 nM in each case.

With `Cc1cc(-c2ccc3ncc4nnc(-c5ccc(C(C)(C)C#N)cc5)n4c3c2)cnc1N` [Compound 58], the IC50 on PI3Kα kinase and at mTOR kinase was below 100 nM in each case.

As to `N#Cc1cccc(-c2nnc3cnc4ccc(-c5ccc6nc(N)sc6c5)cc4n23)c1` [Compound 63], the IC50 on PI3Kα kinase and at mTOR kinase was below 100 nM throughout.

For the molecule `CC(C)(C#N)c1ccc(-c2nnc3cnc4ccc(-c5cnc(N)c(F)c5)cc4n23)cc1` [Compound 66], the IC50 at PI3Kα kinase and on mTOR kinase was below 100 nM in each case.

With `COc1cc(-c2ccc3ncc4nnc(-c5ccc(C(C)(C)C#N)cc5)n4c3c2)cnc1N` [Compound 72], the IC50 at PI3Kα kinase and on mTOR kinase was below 100 nM in each case.

For `CCOc1cc(-c2ccc3ncc4nnc(-c5ccc(C(C)(C)C#N)cc5)n4c3c2)cnc1N` [Compound 75], the 50% inhibitory concentration (IC50) on PI3Kα kinase and at mTOR kinase was below 100 nM each time.

In the case of `Nc1ncc(-c2ccc3ncc4ncn(C5CCN(C(=O)C6CC6)CC5)c4c3n2)cc1C(F)(F)F` [Compound 88, (4-(8-(6-amino-5-(trifluoromethyl)pyridine-3-yl)-1H-imidazo[4,5-c][1,5]naphthyridin-1-yl)piperidin-1-yl)(cyclopropyl)methanone], the half-inhibitory concentration (IC50) at PI3Kα kinase and at mTOR kinase was below 100 nM throughout.

On to `CCC(=O)N1CCC(n2cnc3cnc4ccc(-c5cnc(N)c(C(F)(F)F)c5)nc4c32)CC1` [Compound 96], for which the IC50 on PI3Kα kinase and on mTOR kinase was below 100 nM in each case.

In the case of `CN(C)C(=O)CN1CCC(n2cnc3cnc4ccc(-c5cnc(N)c(C(F)(F)F)c5)nc4c32)CC1` [Compound 98], the IC50 on PI3Kα kinase and on mTOR kinase was below 100 nM each time.

In the case of `CC(=O)N1CCC(n2cnc3cnc4ccc(-c5cnc(N)c(C(F)(F)F)c5)nc4c32)CC1` [Compound 102], the concentration for half-maximal inhibition (IC50) at PI3Kα kinase and on mTOR kinase was below 100 nM in each case.

Values taken from US9181264B2, “Fused heteroaryls and their uses” (Hutchison MediPharma Limited, priority 2011, dated 2015).
